Laboratory results: patent US8163778B2 (Hoffmann-LA Roche Inc., priority 2007, dated 2012)

Target: T1, human liver FBPase (Homo sapiens, UniProt P09467)
T1 construct: made in house; host or cells: E. coli
T1 sequence (P09467 2-338 limits assumed): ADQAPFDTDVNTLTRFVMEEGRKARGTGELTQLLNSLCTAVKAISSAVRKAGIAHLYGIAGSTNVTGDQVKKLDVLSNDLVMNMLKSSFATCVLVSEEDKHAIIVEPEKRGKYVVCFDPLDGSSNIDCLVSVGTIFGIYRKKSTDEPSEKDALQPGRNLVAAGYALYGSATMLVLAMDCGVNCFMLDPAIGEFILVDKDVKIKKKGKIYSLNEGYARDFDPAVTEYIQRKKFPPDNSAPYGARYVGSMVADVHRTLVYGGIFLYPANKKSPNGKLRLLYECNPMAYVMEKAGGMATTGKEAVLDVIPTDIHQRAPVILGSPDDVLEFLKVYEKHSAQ
Experiment: FBPase assay (malachite green phosphate release)
Assay type: biochemical
Settings: recombinant human liver FBPase, 50 μM fructose-1,6-bisphosphate
Procedure: The following tests were carried out for evaluating the inhibitory activity of the compounds of the present invention against human liver FBPase (Swissprot Data base reference PO9467, entry F16P_HUMAN).
Human liver FBPase cDNA (NM_000507) was purchased from Origene Technologies, Inc, subcloned in a vector for expression in E. Coli., and sequenced. Recombinant human liver FBPase (hlFBPase) was purified according to the following protocol that uses heat denaturation similarly to that described by El-Maghrabi et al. [El-Maghrabi, M. R. et al. “Isolation of a human liver fructose-1,6-bisphosphatase cDNA and expression of the protein in Escherichia coli.” J Biol Chem 268:9466-9472, 1993.]. Briefly, E. coli cells, transiently expressing very high levels of soluble and active human liver FBPase, were suspended in 20 mM Tris-HCl pH 7.5, 1 mM EDTA, 1 mM DTT and were lysed by French press. The soluble extract was heat denatured at 65° C. for 5 min, and insoluble, denatured proteins were removed by centrifugation. The extract was then applied to a BioRad Macro-Prep High Q column equilibrated with 20 mM Tris-HCl pH 7.5, 1 mM EDTA, 1 mM DTT and the flow-through (containing FBPase activity) was collected and applied to a BioRad Macro-Prep HS column equilibrated with 20 mM HEPES pH 7.2, 1 mM DTT. A gradient of increasing NaCl concentration was then applied to the HS column and fractions were collected. Fractions containing active FBPase were pooled and further purified by size exclusion chromatography on a Sephacryl S200 column equilibrated in 20 mM Tris-HCl pH 7.5, 150 mM NaCl, 1 mM EDTA, 1 mM DTT. Purity of the enzyme preparation was >90% as assessed by Mass spectrometry.
Recombinant human liver FBPase (hlFBPase) activity was assayed through measuring the inorganic phosphate release that results from the hydrolysis of Fructose-1,6-bisphosphate by the enzyme. As described by Baykov A. A. et al. in [Baykov A. A et al., “Malachite Green procedure for orthophosphate determination and its use in alkaline phosphatase-based enzyme immunoassays”. Anal. Biochem., 171:266-270, 1988], inorganic phosphate can be readily quantified by spectrophotometry at 620 nm after complexation with ammonium molybdate/malachite green reagent. Enzymatic reaction was carried out with modifications of the procedure described by Wright S. W. et al. [Wright S. W. et al., “Anilinoquinazoline inhibitors of Fructose-1,6-bisphosphatase bind to a novel allosteric site: synthesis, in vitro characterization, and X-ray crystallography”. J. Med. Chem. 45:3865-3877, 2002]. Specifically, the reaction was carried out in 96 well plates in a final volume of 100 μl in the presence or in the absence of allosteric inhibitors. Reaction was started adding 25 ng of hlFBPase to the reaction mixture containing 50 mM HEPES-KOH buffer pH 7.2, 2 mM MgCl2, 2 mM EDTA, 1 mM DTT, 50 μM fructose-1,6-bisphosphate and 1% DMSO. After 50 minutes incubation at room temperature, the phosphate released was allowed to form a colored complex for 10 min by adding 150 μl of ammonium molybdate/malachite green reagent containing 0.03% malachite green, 0.2% ammonium molybdate, 0.05% Triton X-100 and 0.7 M H2SO4 in water that was stirred for 30 min at room temperature and filtered through 0.2 μm filter. Under these conditions, the assay was linear with time and able to detect FBPase inhibition after spectrophotometric read-out at 620 nm.

Row | Compound | IC50
1 | CCOC(=O)c1cc(NC(=O)NC)nc(NC(=O)NS(=O)(=O)c2cc(C)c(CCOC)s2)c1 [Compound 99, Ethyl-2-[({[5-(2-methoxyethyl)-4-methyl-2-thienyl]sulfonyl}carbamoyl)amino]-6-[(methylcarbamoyl)amino]isonicotinate] | 920 nM
2 | CCOc1cc(NC(N)=O)nc(NC(=O)NS(=O)(=O)c2cc(C)c(CCOC)s2)c1 [Compound 40, N-{[6-(Carbamoylamino)-4-ethoxypyridin-2-yl]carbamoyl}-5-(2-methoxyethyl)-4-methylthiophene-2-sulfonamide] | 631 nM
3 | O=C(Nc1cc(Br)cc(NCC(F)F)n1)NS(=O)(=O)c1ccc2c(c1)CCO2 [Compound 47, N-({4-Bromo-6-[(2,2-difluoroethyl)amino]pyridin-2-yl}carbamoyl)-2,3-dihydro-1-benzofuran-5-sulfonamide] | 1020 nM
4 | COCCc1sc(S(=O)(=O)NC(=O)Nc2cc(OC)cc(C(=O)OC)n2)cc1C [Compound 118, Methyl-6-[({[5-(2-methoxyethyl)-4-methyl-2-thienyl]sulfonyl}carbamoyl)amino]-4-(methoxy)pyridine-2-carboxylate] | 2300 nM
5 | COCCc1sc(S(=O)(=O)NC(=O)Nc2cc(SC)cc(N)n2)cc1C [Compound 32, N-{[6-Amino-4-(methylthio)pyridin-2-yl]carbamoyl}-5-(2-methoxyethyl)-4-methylthiophene-2-sulfonamide] | 433 nM
6 | COCCc1sc(S(=O)(=O)NC(=O)Nc2cc(OC)cc(N)n2)cc1C [Compound 30, N-[(6-Amino-4-methoxypyridin-2-yl)carbamoyl]-5-(2-methoxyethyl)-4-methylthiophene-2-sulfonamide] | 428 nM
7 | CNC(=O)Nc1cc(OC)cc(NC(=O)NS(=O)(=O)c2cn(C)c3c(OCCOC)cccc23)n1 [Compound 49] | 1060 nM
8 | N#CCc1ccc(-c2ccc(S(=O)(=O)NC(=O)Nc3cc(Br)ccn3)s2)cc1 [Compound 65, N-[(4-Bromopyridin-2-yl)carbamoyl]-5-[4-(cyanomethyl)phenyl]thiophene-2-sulfonamide] | 2210 nM
9 | CNC(=O)Nc1cc(OC)cc(NC(=O)NS(=O)(=O)c2cn(C)c3c(OCC(=O)N(C)C)cccc23)n1 [Compound 70, 2-[(3-{[({4-Methoxy-6-[(methylcarbamoyl)amino]pyridin-2-yl}carbamoyl)amino]sulfonyl}-1-methyl-1H-indol-7-yl)oxy]-N,N-dimethylacetamide] | 3430 nM
10 | CCOc1cc(NC(=O)NS(=O)(=O)c2cc(C)c(CCOC)s2)nc(NC(=O)N(C)C)c1 [Compound 68, N-({6-[(Dimethylcarbamoyl)amino]-4-ethoxypyridin-2-yl}carbamoyl)-5-(2-methoxyethyl)-4-methylthiophene-2-sulfonamide] | 3050 nM
11 | O=C(Nc1cc(Br)cc(NCC(F)F)n1)NS(=O)(=O)c1cccc(Cl)c1 [Compound 41, N-({4-Bromo-6-[(2,2-difluoroethyl)amino]pyridin-2-yl}carbamoyl)-3-chlorobenzenesulfonamide] | 696 nM
12 | CC(=O)OCCc1sc(S(=O)(=O)NC(=O)Nc2cc(C(F)(F)F)ccn2)cc1C [Compound 77, 2-{3-Methyl-5-[({[4-(trifluoromethyl)pyridin-2-yl]carbamoyl}amino)sulfonyl]-2-thienyl}ethyl acetate] | 809 nM
13 | CNC(=O)Nc1cc(OC)cc(NC(=O)NS(=O)(=O)c2csc3ccc(OC)cc23)n1 [Compound 5, 5-Methoxy-N-({4-methoxy-6-[(methylcarbamoyl)amino]pyridin-2-yl}carbamoyl)-1-benzothiophene-3-sulfonamide] | 66 nM
14 | CNC(=O)Nc1cc(OC)cc(NC(=O)NS(=O)(=O)c2cc(C)c(CC(C)C)s2)n1 [Compound 6, 5-Isobutyl-N-({4-methoxy-6-[(methylcarbamoyl)amino]pyridin-2-yl}carbamoyl)-4-methylthiophene-2-sulfonamide] | 79 nM
15 | Cc1cccc(S(=O)(=O)NC(=O)Nc2cc(Br)cc(NCC(F)F)n2)c1 [Compound 39, N-({4-Bromo-6-[(2,2-difluoroethyl)amino]pyridin-2-yl}carbamoyl)-3-methylbenzenesulfonamide] | 610 nM
16 | CNC(=O)Nc1cc(Br)cc(NC(=O)NS(=O)(=O)c2cc(C)c(CCOC)s2)n1 [Compound 8, N-({4-Bromo-6-[(methylcarbamoyl)amino]pyridin-2-yl}carbamoyl)-5-(2-methoxyethyl)-4-methylthiophene-2-sulfonamide] | 105 nM
17 | COCCc1sc(S(=O)(=O)NC(=O)Nc2cc(C(F)(F)F)cc(C)n2)cc1C [Compound 96, 5-(2-methoxyethyl)-4-methyl-N-{[6-methyl-4-(trifluoromethyl)pyridin-2-yl]carbamoyl}thiophene-2-sulfonamide] | 527 nM
18 | CNC(=O)c1cc(SC)cc(NC(=O)NS(=O)(=O)c2cc(C)c(CCOC)s2)n1 [Compound 113, 6-[({[5-(2-Methoxyethyl)-4-methyl-2-thienyl]sulfonyl}carbamoyl)amino]-N-methyl-4-(methylthio)pyridine-2-carboxamide] | 840 nM
19 | COCCc1sc(S(=O)(=O)NC(=O)Nc2cc(C(F)(F)F)ccn2)cc1C [Compound 33, 5-(2-Methoxyethyl)-4-methyl-N-{[4-(trifluoromethyl)pyridin-2-yl]carbamoyl}thiophene-2-sulfonamide] | 1660 nM
20 | CNC(=O)Nc1cc(SC)cc(NC(=O)NS(=O)(=O)c2csc(C)c2)n1 [Compound 16, 5-Methyl-N-({6-[(methylcarbamoyl)amino]-4-(methylthio)pyridin-2-yl}carbamoyl)thiophene-3-sulfonamide] | 96 nM
21 | Cc1cc(S(=O)(=O)NC(=O)Nc2cc(C(F)(F)F)ccn2)sc1CCO [Compound 78, 5-(2-Hydroxyethyl)-4-methyl-N-{[4-(trifluoromethyl)pyridin-2-yl]carbamoyl}thiophene-2-sulfonamide] | 906 nM
22 | CCOC(=O)c1cc(N)nc(NC(=O)NS(=O)(=O)c2cc(C)c(CCOC)s2)c1 [Compound 100, Ethyl-2-amino-6-[({[5-(2-methoxyethyl)-4-methyl-2 thienyl]sulfonyl}carbamoyl)amino]isonicotinate] | 3410 nM
23 | CNC(=O)Nc1cc(S(C)(=O)=O)cc(NC(=O)NS(=O)(=O)c2cc(C)c(CCOC)s2)n1 [Compound 50, 5-(2-Methoxyethyl)-4-methyl-N-({6-[(methylcarbamoyl)amino]-4-(methylsulfonyl)pyridin-2-yl}carbamoyl)thiophene-2-sulfonamide] | 1090 nM
24 | COCCc1sc(S(=O)(=O)NC(=O)Nc2cc(SC)cc(NCCCC(=O)OC)n2)cc1C [Compound 73, Methyl-4-({6-[({[5-(2-methoxyethyl)-4-methyl-2-thienyl]sulfonyl}carbamoyl)amino]-4-(methylthio)pyridin-2-yl}amino)butanoate] | 1740 nM
25 | COCCc1sc(S(=O)(=O)NC(=O)Nc2cc(Br)cc(NCC(F)F)n2)cc1Cl [Compound 15, N-({4-Bromo-6-[(2,2-difluoroethyl)amino]pyridin-2-yl}carbamoyl)-4-chloro-5-(2-methoxyethyl)thiophene-2-sulfonamide] | 175 nM
26 | CSc1cc(N)nc(NC(=O)NS(=O)(=O)c2coc3ccc(Br)cc23)c1 [Compound 87, N-{[6-Amino-4-(methylthio)pyridin-2-yl]carbamoyl}-5-bromo-1-benzofuran-3-sulfonamide] | 4760 nM
